Measurements published in US12304890B2, “R-type pyridyloxycarboxylic acid, salt and ester derivative thereof, and preparation method therefor, and herbicidal composition and application thereof” (Qingdao Kingagroot Chemical Compound Co., Ltd., priority 2018, dated 2025).

How the values were obtained:
Format in all cases: in vivo
[1] = tested on: Monocotyledonous and dicotyledonous weed seeds and main crop seeds; experiment: Post-emergence test experiment, other weeds and crops (Table 4, 1000 g a.i./ha); details: 3 weeks in greenhouse, fresh weight inhibition
In short: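 Weed and crop seeds (wheat, corn, rice, soybean, cotton, oilseed, millet, sorghum) sown in soil pots in a greenhouse and sprayed at 2-3 leaf stage, 2 weeks after sowing. Compound in acetone/tween-80 with methyl oleate concentrate (1.5 L/ha) as synergist. Effect recorded as fresh-weight growth inhibition rate.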

Digitaria sanguinalis = experiment: Post-emergence test experiment, Digitaria sanguinalis; details: 1000 g a.i./ha, 3 weeks in greenhouse, fresh weight inhibition
In short: (§1)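 Pot-grown plants, sown 2 weeks earlier and at 2-3 leaves, received a foliar spray of compound in acetone/tween-80 with methyl oleate adjuvant. Effect was expressed as fresh weight inhibition rate after three further greenhouse weeks.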

Echinochloa crusgalli = experiment: Post-emergence test experiment, Echinochloa crusgalli; details: 1000 g a.i./ha, 3 weeks in greenhouse, fresh weight inhibition
In short: as §1

Row | Compound | Activity level (growth inhibition rate), Abutilon theophrasti Medic. [1] | Activity level (growth inhibition rate), Galium aparine [1] | Activity level (growth inhibition rate), Monochoria Vaginalis [1] | Activity level (growth inhibition rate), Digitaria sanguinalis (Digitaria sanguinalis) | Activity level (growth inhibition rate), Echinochloa crusgalli (Echinochloa crusgalli)
1 | CC(Oc1nc(F)c(Cl)c(N)c1Cl)C(=O)SCc1ccccc1C(F)(F)F (centres unmarked) [Compound 2-328] | 5 (Level 5: the growth inhibition rate is greater than 85%) | 5 (Level 5: the growth inhibition rate is greater than 85%) | 5 (Level 5: the growth inhibition rate is greater than 85%) | 5 (Level 5: the growth inhibition rate is greater than 85%) | 5 (Level 5: the growth inhibition rate is greater than 85%)
2 | C[C@@H](Oc1nc(F)c(Cl)c(N)c1Cl)C(=O)OCc1cccnc1 [Compound 2-346] | 5 (Level 5: the growth inhibition rate is greater than 85%) | 5 (Level 5: the growth inhibition rate is greater than 85%) | 5 (Level 5: the growth inhibition rate is greater than 85%) | 5 (Level 5: the growth inhibition rate is greater than 85%) | 5 (Level 5: the growth inhibition rate is greater than 85%)
3 | CCC(C)SC(=O)[C@@H](C)Oc1nc(F)c(Cl)c(N)c1Cl (some centres unmarked) [Compound 2-82] | 5 (Level 5: the growth inhibition rate is greater than 85%) | 5 (Level 5: the growth inhibition rate is greater than 85%) | 5 (Level 5: the growth inhibition rate is greater than 85%) | 5 (Level 5: the growth inhibition rate is greater than 85%) | 5 (Level 5: the growth inhibition rate is greater than 85%)
4 | C[C@@H](Oc1nc(F)c(Cl)c(N)c1Cl)C(=O)OCCCl [Compound 2-277] | 5 (Level 5: the growth inhibition rate is greater than 85%) | 5 (Level 5: the growth inhibition rate is greater than 85%) | 5 (Level 5: the growth inhibition rate is greater than 85%) | 5 (Level 5: the growth inhibition rate is greater than 85%) | 5 (Level 5: the growth inhibition rate is greater than 85%)
5 | COC(=O)CSC(=O)C(C)Oc1nc(F)c(Cl)c(N)c1Cl (centres unmarked) [Compound 2-290] | 5 (Level 5: the growth inhibition rate is greater than 85%) | 5 (Level 5: the growth inhibition rate is greater than 85%) | 5 (Level 5: the growth inhibition rate is greater than 85%) | 5 (Level 5: the growth inhibition rate is greater than 85%) | 5 (Level 5: the growth inhibition rate is greater than 85%)
6 | CC(C)COC(=O)[C@@H](C)Oc1nc(F)c(Cl)c(N)c1Cl [Compound 2-79] | 5 (Level 5: the growth inhibition rate is greater than 85%) | 5 (Level 5: the growth inhibition rate is greater than 85%) | 5 (Level 5: the growth inhibition rate is greater than 85%) | 5 (Level 5: the growth inhibition rate is greater than 85%) | 5 (Level 5: the growth inhibition rate is greater than 85%)
7 | CC(C)SC(=O)[C@@H](C)Oc1nc(F)c(Cl)c(N)c1Cl [Compound 2-76] | 5 (Level 5: the growth inhibition rate is greater than 85%) | 5 (Level 5: the growth inhibition rate is greater than 85%) | 5 (Level 5: the growth inhibition rate is greater than 85%) | 5 (Level 5: the growth inhibition rate is greater than 85%) | 5 (Level 5: the growth inhibition rate is greater than 85%)
8 | Cc1ccccc1COC(=O)C(C)Oc1nc(F)c(Cl)c(N)c1Cl (centres unmarked) [Compound 2-302] | 5 (Level 5: the growth inhibition rate is greater than 85%) | 5 (Level 5: the growth inhibition rate is greater than 85%) | 5 (Level 5: the growth inhibition rate is greater than 85%) | 5 (Level 5: the growth inhibition rate is greater than 85%) | 5 (Level 5: the growth inhibition rate is greater than 85%)
9 | COC(=O)[C@@H](C)Oc1nc(F)c(Cl)c(NC(=O)c2ccccc2)c1Cl [Compound 2-379] | 5 (Level 5: the growth inhibition rate is greater than 85%) | 5 (Level 5: the growth inhibition rate is greater than 85%) | 5 (Level 5: the growth inhibition rate is greater than 85%) | 5 (Level 5: the growth inhibition rate is greater than 85%) | 5 (Level 5: the growth inhibition rate is greater than 85%)
10 | CCC(CC)SC(=O)[C@@H](C)Oc1nc(F)c(Cl)c(N)c1Cl [Compound 2-98] | 5 (Level 5: the growth inhibition rate is greater than 85%) | 5 (Level 5: the growth inhibition rate is greater than 85%) | 5 (Level 5: the growth inhibition rate is greater than 85%) | 5 (Level 5: the growth inhibition rate is greater than 85%) | 5 (Level 5: the growth inhibition rate is greater than 85%)
11 | CC(Oc1nc(F)c(Cl)c(N)c1Cl)C(=O)OCc1ccccc1Br (centres unmarked) [Compound 2-320] | 5 (Level 5: the growth inhibition rate is greater than 85%) | 5 (Level 5: the growth inhibition rate is greater than 85%) | 5 (Level 5: the growth inhibition rate is greater than 85%) | 5 (Level 5: the growth inhibition rate is greater than 85%) | 5 (Level 5: the growth inhibition rate is greater than 85%)
12 | CCNc1c(Cl)c(F)nc(O[C@H](C)C(=O)SC)c1Cl [Compound 2-376] | 5 (Level 5: the growth inhibition rate is greater than 85%) | 5 (Level 5: the growth inhibition rate is greater than 85%) | 5 (Level 5: the growth inhibition rate is greater than 85%) | 5 (Level 5: the growth inhibition rate is greater than 85%) | 5 (Level 5: the growth inhibition rate is greater than 85%)
13 | CC(Oc1nc(F)c(Cl)c(N)c1Cl)C(=O)OCc1ccccc1Cl (centres unmarked) [Compound 2-314] | 5 (Level 5: the growth inhibition rate is greater than 85%) | 5 (Level 5: the growth inhibition rate is greater than 85%) | 5 (Level 5: the growth inhibition rate is greater than 85%) | 5 (Level 5: the growth inhibition rate is greater than 85%) | 5 (Level 5: the growth inhibition rate is greater than 85%)
14 | CCCCCCCCCSC(=O)[C@@H](C)Oc1nc(F)c(Cl)c(N)c1Cl [Compound 2-176] | 5 (Level 5: the growth inhibition rate is greater than 85%) | 5 (Level 5: the growth inhibition rate is greater than 85%) | 5 (Level 5: the growth inhibition rate is greater than 85%) | 5 (Level 5: the growth inhibition rate is greater than 85%) | 5 (Level 5: the growth inhibition rate is greater than 85%)
15 | CCCCCCCCCOC(=O)[C@@H](C)Oc1nc(F)c(Cl)c(N)c1Cl [Compound 2-175] | 5 (Level 5: the growth inhibition rate is greater than 85%) | 5 (Level 5: the growth inhibition rate is greater than 85%) | 5 (Level 5: the growth inhibition rate is greater than 85%) | 5 (Level 5: the growth inhibition rate is greater than 85%) | 5 (Level 5: the growth inhibition rate is greater than 85%)
16 | CC(C)C(C)SC(=O)[C@@H](C)Oc1nc(F)c(Cl)c(N)c1Cl (some centres unmarked) [Compound 2-96] | 5 (Level 5: the growth inhibition rate is greater than 85%) | 5 (Level 5: the growth inhibition rate is greater than 85%) | 5 (Level 5: the growth inhibition rate is greater than 85%) | 5 (Level 5: the growth inhibition rate is greater than 85%) | 5 (Level 5: the growth inhibition rate is greater than 85%)
